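All cell lines were grown in 96-well plates and treated with compound for 48 hours. GI50 marks 50% less growth.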 Active and inactive are the calls of the source. Rule as the data show it: active = GI50 up to about 1.1 µM and inactive = higher.
How the values were obtained:
Experiment in all cases: DTP human tumour cell line panel, 48 h
HOP-62 = test system: HOP-62
CCRF-CEM = test system: CCRF-CEM
HCT-116 = test system: HCT-116
OVCAR-8 = test system: OVCAR-8
RPMI-8226 = test system: RPMI-8226
SW-620 = test system: SW-620
SN12C = test system: SN12C
SK-MEL-5 = test system: SK-MEL-5
NCI-H226 = test system: NCI-H226
SNB-75 = test system: SNB-75
HL-60 = test system: HL-60
DLD-1 = test system: DLD-1
SR = test system: SR
SF-295 = test system: SF-295
OVCAR-5 = test system: OVCAR-5
SK-MEL-28 = test system: SK-MEL-28
HT-29 = test system: HT-29
COLO 205 = test system: COLO 205
M14 = test system: M14
BT-549 = test system: BT-549

## CC(=O)Nc1ccc(-c2nnc(SCC(=O)Nc3ccc(C)cc3)o2)cc1
HOP-62
  GI50: 56.2 µM (inactive)
CCRF-CEM
  GI50: 24.3 µM (inactive)
HCT-116
  GI50: 15.7 µM (inactive)
OVCAR-8
  GI50: 27.7 µM (inactive)
RPMI-8226
  GI50: 26.2 µM (inactive)
SW-620
  GI50: 19.1 µM (inactive)
SN12C
  GI50: 15.8 µM (inactive)
SK-MEL-5
  GI50: 14.7 µM (inactive)
NCI-H226
  GI50: 27.5 µM (inactive)
SNB-75
  GI50: 16.4 µM (inactive)
HL-60
  GI50: 27.8 µM (inactive)
DLD-1
  GI50: 14.9 µM (inactive)
SR
  GI50: 28 µM (inactive)
SF-295
  GI50: 16.6 µM (inactive)
OVCAR-5
  GI50: 19.6 µM (inactive)
SK-MEL-28
  GI50: 16.1 µM (inactive)
HT-29
  GI50: 17 µM (inactive)
COLO 205
  GI50: 17.7 µM (inactive)
M14
  GI50: 16.1 µM (inactive)

## N#C/C(=C\c1cc2ccccc2c2ccccc12)c1ccccc1
HOP-62
  GI50: 2.49 µM (inactive)
CCRF-CEM
  GI50: 3.59 µM (inactive)
HCT-116
  GI50: 5.3 µM (inactive)
OVCAR-8
  GI50: 30 µM (inactive)
RPMI-8226
  GI50: 6.59 µM (inactive)
SW-620
  GI50: 4.65 µM (inactive)
SN12C
  GI50: 9.59 µM (inactive)
SK-MEL-5
  GI50: 5.38 µM (inactive)
NCI-H226
  GI50: 43.8 µM (inactive)
SNB-75
  GI50: 2.31 µM (inactive)
HL-60
  GI50: 3.04 µM (inactive)
DLD-1
  GI50: 5.6 µM (inactive)
SR
  GI50: 2.9 µM (inactive)
SF-295
  GI50: 5.93 µM (inactive)
OVCAR-5
  GI50: 45.4 µM (inactive)
SK-MEL-28
  GI50: 24 µM (inactive)
HT-29
  GI50: 4.45 µM (inactive)
COLO 205
  GI50: 3.43 µM (inactive)
M14
  GI50: 6.05 µM (inactive)

## Cc1cc(NC(=O)NC(=O)c2ccccc2N(C)C)ccc1Oc1ncc(Br)cn1
HOP-62
  GI50: 0.659 µM (active)
CCRF-CEM
  GI50: 0.237 µM (active)
HCT-116
  GI50: 0.439 µM (active)
OVCAR-8
  GI50: 1.1 µM (active)
RPMI-8226
  GI50: 0.451 µM (active)
SW-620
  GI50: 0.301 µM (active)
SN12C
  GI50: 1.74 µM (inactive)
SK-MEL-5
  GI50: 0.179 µM (active)
NCI-H226
  GI50: 9.27 µM (inactive)
SNB-75
  GI50: 0.135 µM (active)
BT-549
  GI50: 0.731 µM (active)
HL-60
  GI50: 0.073 µM (active)
DLD-1
  GI50: 0.373 µM (active)
SR
  GI50: 0.0541 µM (active)
SF-295
  GI50: 0.224 µM (active)
OVCAR-5
  GI50: 8.11 µM (inactive)
SK-MEL-28
  GI50: 0.64 µM (active)
HT-29
  GI50: 0.305 µM (active)
COLO 205
  GI50: 0.78 µM (active)
M14
  GI50: 0.957 µM (active)

## N#C/C(=C\c1c[nH]c2ccccc12)C(=O)c1ccc(O)c(O)c1
HOP-62
  GI50: 19.2 µM (inactive)
CCRF-CEM
  GI50: 5.87 µM (inactive)
HCT-116
  GI50: 31.4 µM (inactive)
OVCAR-8
  GI50: 38.5 µM (inactive)
RPMI-8226
  GI50: 15.4 µM (inactive)
SW-620
  GI50: 32.7 µM (inactive)
SN12C
  GI50: 23.1 µM (inactive)
SK-MEL-5
  GI50: 35.5 µM (inactive)
NCI-H226
  GI50: 47.4 µM (inactive)
SNB-75
  GI50: 41 µM (inactive)
BT-549
  GI50: 11.1 µM (inactive)
HL-60
  GI50: 13.2 µM (inactive)
DLD-1
  GI50: 47.9 µM (inactive)
SR
  GI50: 9.82 µM (inactive)
SF-295
  GI50: 14.6 µM (inactive)
OVCAR-5
  GI50: 33 µM (inactive)
SK-MEL-28
  GI50: 47.3 µM (inactive)
HT-29
  GI50: 28 µM (inactive)
COLO 205
  GI50: 32.7 µM (inactive)
M14
  GI50: 38.5 µM (inactive)
